In patent US20250223307A1, “MDM2/MDMX DOUBLE-TARGET INHIBITOR COMPOUND, PRODRUG, PHARMACEUTICAL COMPOSITION, AND PREPARATION METHOD THEREFOR AND USE THEREOF” (GLOBAL HEALTH DRUG DISCOVERY INSTITUTE, priority 2022, published 2025):

Key:
[1] = biological target: T1, MDMX (Homo sapiens, UniProt O15151); assay: HTRF test: inhibition of MDMX-p53 protein binding
T1 sequence (O15151 2-134): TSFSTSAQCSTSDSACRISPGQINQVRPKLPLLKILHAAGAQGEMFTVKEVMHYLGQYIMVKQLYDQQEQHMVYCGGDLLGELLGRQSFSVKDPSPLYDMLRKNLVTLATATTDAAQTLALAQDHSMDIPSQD

[2] = system: Blood cancer cells RS4; 11; assay: CellTiter Glo test: growth inhibition of cells; assay type: cell-based; conditions: Homo sapiens, 11 cells, 72 h, cell viability
Experimental: Test of Candidate Compounds on Growth Inhibition of Cells Determined by CellTiter Glo
Blood cancer cells RS4; 11 were inoculated into the 96-well cell culture plate through Multidrop 3000 cells per well, with a volume of 100 μL. The final compound concentration ranged from 50 μM to 0.01 μM at 9 concentration gradients and the DMSO final concentration was 0.1%. The cells and compounds were co-incubated in a cell incubator at 37° C. for 72 h, a CellTiter-Glo Luminescent Cell Viability Assay reagent was added 100 μL/well, the cells and compound were uniformly mixed and incubated at room temperature for 10 min, and Envision reading was performed. A sample treated with 50 μM of a positive compound was taken as a positive control and a sample treated with 100 nL of DMSO was taken as a negative control.

[3] = biological target: MDM2 (Homo sapiens, UniProt Q00987); assay: HTRF test: inhibition of MDM2-p53 protein binding
MDM2, sequence (Q00987 2-138): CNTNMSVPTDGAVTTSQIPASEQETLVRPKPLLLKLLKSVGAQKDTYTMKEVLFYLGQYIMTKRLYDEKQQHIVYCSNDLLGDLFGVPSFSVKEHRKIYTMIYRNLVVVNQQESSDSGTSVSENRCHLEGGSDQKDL

IC50 [1] | IC50 [2] | IC50 [3] | SMILES
10 to 100 nM | ≤ 1000 nM | 10 to 100 nM | Cc1c(Cl)ccc2c(/C=C3\NC(=O)N([C@H](CO)c4ccc(C#N)cc4)C3=O)c[nH]c12 [Compound 97, (S,Z)-4-(1-(4-((6-chloro-7-methyl-1H-indol-3-yl)methylene)-2,5-dioxoimidazolidin-1-yl)-2-hydroxyethyl)benzonitrile]
< 10 nM | ≤ 1000 nM | < 10 nM | Cc1c(Cl)ccc2c(/C=C3\NC(=O)N(C(C(=O)NC45CCC(O)(CC4)CC5)c4ccc(F)c(F)c4)C3=O)c[nH]c12 (stereo not shown) [Compound 66, (Z)-2-(4-((6-chloro-7-methyl-1H-indol-3-yl)methylene)-2,5-dioxoimidazolidin-1-yl)-2-(3,4-difluorophenyl)-N-(4-hydroxylbicyclo[2.2.2]octan-1-yl)acetamide]
< 10 nM | ≤ 1000 nM | < 10 nM | Cc1c(Cl)ccc2c(/C=C3\NC(=O)N(C(C(=O)NC45CC(O)(C4)C5)c4ccc(F)c(F)c4)C3=O)c[nH]c12 (stereo not shown) [Compound 57, (Z)-2-(4-((6-chloro-7-methyl-1H-indol-3-yl)methylene)-2,5-dioxoimidazolidin-1-yl)-2-(3,4-difluorophenyl)-N-(3-hydroxylbicyclo[1.1.1]pentan-1-yl)acetamide]
< 10 nM | ≤ 1000 nM | < 10 nM | Cc1c(Cl)ccc2c(/C=C3\NC(=O)N(C(C(=O)NCCO)c4ccc(C#N)cc4)C3=O)c[nH]c12 (stereo not shown) [Compound 60, (Z)-2-(4-((6-chloro-7-methyl-1H-indol-3-yl)methylene)-2,5-dioxoimidazolidin-1-yl)-2-(4-cyanophenyl)-N-(2-hydroxyethyl)acetamide]
10 to 100 nM | – | 10 to 100 nM | Cc1c(Cl)ccc2c(/C=C3\NC(=O)N(C(COP(=O)(O)O)c4ccc(C#N)cc4)C3=O)c[nH]c12 (stereo not shown) [Compound 92, (Z)-2-(4-((6-chloro-7-methyl-1H-indol-3-yl)methylene)-2,5-dioxoimidazolidin-1-yl)-2-(4-cyanophenyl)ethyl dihydrophosphate]
10 to 100 nM | – | > 100 nM | Cc1c(Cl)ccc2c(/C=C3\NC(=O)N(C(C(=O)NC(COP(=O)(O)O)COP(=O)(O)O)c4ccc(F)c(F)c4)C3=O)c[nH]c12 (stereo not shown) [Compound 74, (Z)-2-(2-(4-((6-chloro-7-methyl-1H-indol-3-yl)methylene)-2,5-dioxoimidazolidin-1-yl)-2-(3,4-difluorophenyl)acetamido)propane-1,3-diylbis(dihydrophosphate)]
– | ≤ 1000 nM | – | O=C1N/C(=C\c2c[nH]c3c(F)c(Cl)ccc23)C(=O)N1C(CCO)c1ccc(Cl)cc1 (stereo not shown) [Compound 108, (Z)-5-((6-chloro-7-fluoro-1H-indol-3-yl)methylene)-3-(1-(4-chlorophenyl)-3-hydroxypropyl)imidazolidine-2,4-dione]
10 to 100 nM | – | 10 to 100 nM | O=C1N/C(=C\c2c[nH]c3cc(Cl)ccc23)C(=O)N1[C@@H](COP(=O)(O)O)c1ccc(F)c(F)c1 [Compound 95, (R,Z)-2-(4-((6-chloro-1H-indol-3-yl)methylene)-2,5-dioxoimidazolidin-1-yl)-2-(3,4-difluorophenyl)dihydroethyl phosphate]
< 10 nM | – | < 10 nM | O=C1N/C(=C\c2c[nH]c3cc(Cl)ccc23)C(=O)N1[C@H](COP(=O)(O)O)c1ccc(F)c(F)c1 [Compound 94, (S,Z)-2-(4-((6-chloro-1H-indol-3-yl)methylene)-2,5-dioxoimidazolidin-1-yl)-2-(3,4-difluorophenyl)dihydroethyl phosphate]

Further lines, the compound ahead of its results:

SMILES | IC50 [1] | IC50 [2] | IC50 [3]
O=C1N/C(=C\c2c[nH]c3cc(Cl)ccc23)C(=O)N1C(CO)c1ccc(F)c(F)c1 (stereo not shown) [Compound 26] | < 10 nM | ≤ 1000 nM | < 10 nM
O=C1N/C(=C\c2c[nH]c3cc(Cl)ccc23)C(=O)N1Cc1ccc(Cl)cc1 [Compound 2, (Z)-5-((6-chloro-1H-indol-3-yl)methylene)-3-(4-chlorobenzyl)imidazolidine-2,4-dione] | 10 to 100 nM | ≤ 1000 nM | 10 to 100 nM
N#Cc1cc(F)c(CN2C(=O)N/C(=C\c3c[nH]c4c(F)c(Cl)ccc34)C2=O)cc1F [Compound 36, 4-{[(4Z)-4-[(6-chloro-7-fluoro-1H-indol-3-yl)methylene]-2,5-dioxoimidazolidin-1-yl]methyl}-2,5-difluorobenzonitrile] | 10 to 100 nM | ≤ 1000 nM | < 10 nM
Cc1c(Cl)ccc2c(/C=C3\NC(=O)N(C(C(=O)NCCOP(=O)(O)O)c4ccc(F)c(F)c4)C3=O)c[nH]c12 (stereo not shown) [Compound 44, (Z)-2-(2-(4-((6-chloro-7-methyl-1H-indol-3-yl)methylene)-2,5-dioxoimidazolidin-1-yl)-2-(3,4-difluorophenyl)acetamido)dihydroethyl phosphate] | < 10 nM | – | < 10 nM
COc1c(Cl)ccc2c(/C=C3\NC(=O)N(C(C)c4ccc(F)c(F)c4)C3=O)c[nH]c12 (stereo not shown) [Compound 25, (Z)-5-((6-chloro-7-methoxyl-1H-indol-3-yl)methylene)-3-(1-(3,4-difluorophenyl)ethyl)imidazolidine-2,4-dione] | 10 to 100 nM | – | 10 to 100 nM
O=C(NC(CO)CO)C(c1ccc(Cl)cc1)N1C(=O)N/C(=C\c2c[nH]c3cc(Cl)ccc23)C1=O (stereo not shown) [Compound 22, (Z)-2-(4-((6-chloro-1H-indol-3-yl)methylene)-2,5-dioxoimidazolidin-1-yl)-2-(4-chlorophenyl)-N-(1,3-dihydroxypropan-2-yl)acetamide] | 10 to 100 nM | – | < 10 nM
O=C1N/C(=C\c2c[nH]c3c(F)c(Cl)ccc23)C(=O)N1C(CCCO)c1ccc(Cl)cc1 (stereo not shown) [Compound 109, (Z)-5-((6-chloro-7-fluoro-1H-indol-3-yl)methylene)-3-(1-(4-chlorophenyl)-4-hydroxybutyl)imidazolidine-2,4-dione] | – | ≤ 1000 nM | –
Cc1c(Cl)ccc2c(/C=C3\NC(=O)N(C(CO)c4ccc(F)c(F)c4)C3=O)c[nH]c12 (stereo not shown) [Compound 39, (Z)-5-((6-chloro-7-methyl-1H-indol-3-yl)methylene)-3-(1-(3,4-difluorophenyl)-2-hydroxyethyl)imidazolidine-2,4-dione] | – | 1000 to 10000 nM | –
O=C1N/C(=C\c2c[nH]c3c(OCF)c(Cl)ccc23)C(=O)N1Cc1ccc(F)c(F)c1 [Compound 6, (Z)-5-((6-chloro-7-(fluoromethoxyl)-1H-indol-3-yl)methylene)-3-(3,4-difluorobenzyl)imidazolidine-2,4-dione] | 10 to 100 nM | – | 10 to 100 nM
CCN(CC)CCNC(=O)C(c1ccc(Cl)cc1)N1C(=O)N/C(=C\c2c[nH]c3cc(Cl)ccc23)C1=O (stereo not shown) [Compound 23, (Z)-2-(4-((6-chloro-1H-indol-3-yl)methylene)-2,5-dioxoimidazolidin-1-yl)-2-(4-chlorophenyl)-N-(2-(diethylamino)ethyl)acetamide] | 10 to 100 nM | – | 10 to 100 nM
Cc1c(Cl)ccc2c(/C=C3\NC(=O)N(C(COP(=O)(O)O)c4ccc(F)c(F)c4)C3=O)c[nH]c12 (stereo not shown) [Compound 43, (Z)-2-(4-((6-chloro-7-methyl-1H-indol-3-yl)methylene)-2,5-dioxoimidazolidin-1-yl)-2-(3,4-difluorophenyl)ethyl dihydrophosphate] | 10 to 100 nM | – | 10 to 100 nM
O=C1N/C(=C\c2c[nH]c3c(Cl)c(Cl)ccc23)C(=O)N1Cc1ccc(F)c(F)c1 [Compound 7, (Z)-5-((6,7-dichloro-1H-indol-3-yl)methylene)-3-(3,4-difluorobenzyl)imidazolidine-2,4-dione] | 10 to 100 nM | – | 10 to 100 nM
